From patent publication US20260144739A1, “A SKIN BRIGHTENING COMPOSITION” (Conopco, Inc., d/b/a UNILEVER, priority 2022, published 2026)

What was measured:
[1] = tested on: Co-cultures of HaCat keratinocytes and primary human melanocytes; assay: Melanin content assay (% melanin reduction) in keratinocyte + melanocyte co-cultures; format: cell-based; conditions: 72 hrs treatment; melanin (405 nm) corrected for cell numbers (MC/Calcein); vs DMSO control; actives in wt % as per example; fermented oil samples diluted 1:40
Protocol: Various samples containing actives were prepared and the % melanin reduction was measured. The protocol for measuring the melanin reduction is summarized below:
Co-cultures of HaCat keratinocytes and primary human melanocytes were mixed at 40,000 each (1:1 ratio) in 1 ml of a 1:1 mix of their respective culture medium and seeded as such per well, in 12 well plates. After 24 hrs, cultures were treated with various concentrations of the test materials shown in table 1 and left undisturbed for a further period of 72 hrs. Comparative vehicle control was also set up simultaneously. For melanin estimation at the end of the 72 hrs incubation, cell viability was first determined using the Calcein AM method. Briefly, spent media was removed and cells were washed once with 0.4 ml of 1×PBS/well. Fresh 1 μM calcein-AM in PBS buffer was added to each well, including control wells without cells. Plates were covered with aluminium foil and incubated for 30 mins at 37° C. in a CO2 incubator. Calcein fluorescence was measured (excitation at 490 nm and emission at 520 nm) in a TECAN M1000 plate reader. Culture wells were drained and lysed using 1N NaOH containing 10% DMSO and placed for 1 hour at 60° C. in a shaker incubator. 100 μl of the supernatant was transferred to a 384 well plate and melanin was measured in a TECAN plate reader (405 nm filter). […]

[2] = tested on: Co-cultures of HaCat keratinocytes and primary human melanocytes; assay: Cell viability by the Calcein AM method in the co-cultures; format: cell-based; conditions: 4-HR at concentrations higher than 0.0002%, at the cellular level in invitro experiments
Protocol: Co-cultures of HaCat keratinocytes and primary human melanocytes were mixed at 40,000 each (1:1 ratio) in 1 ml of a 1:1 mix of their respective culture medium and seeded as such per well, in 12 well plates. After 24 hrs, cultures were treated with various concentrations of the test materials shown in table 1 and left undisturbed for a further period of 72 hrs. Comparative vehicle control was also set up simultaneously. For melanin estimation at the end of the 72 hrs incubation, cell viability was first determined using the Calcein AM method. Briefly, spent media was removed and cells were washed once with 0.4 ml of 1×PBS/well. Fresh 1 μM calcein-AM in PBS buffer was added to each well, including control wells without cells. Plates were covered with aluminium foil and incubated for 30 mins at 37° C. in a CO2 incubator. Calcein fluorescence was measured (excitation at 490 nm and emission at 520 nm) in a TECAN M1000 plate reader. Culture wells were drained and lysed using 1N NaOH containing 10% DMSO and placed for 1 hour at 60° C. in a shaker incubator. 100 μl of the supernatant was transferred to a 384 well plate and melanin was measured in a TECAN plate reader (405 nm filter). Melanin content (MC) was expressed after correction for cell numbers (MC/Calcein) and represented as % melanin.

Row | Compound | % melanin reduction [1] | cell viability [2]
1 | CCCCCCc1ccc(O)cc1O [B] | 23% | –
2 | CCCCCCc1ccc(O)cc1O [C] | 3% | –
3 | CCCCCCc1ccc(O)cc1O [Example 4-HR, 4-hexyl resorcinol] | – | leads to cell viability problems
